Entries after “also recorded” stand apart in the source; their conditions may differ.
Tests used:
Aβ1-42 [1] = molecular target: T1, Aβ1-42 (Homo sapiens, UniProt P05067); experiment: Western blot / silver stain detection of Aβ1-42 after incubation with SST14 or CST17; assay type: biochemical; conditions: 18 hr incubation, 6E10 Western blot, Aβ1-42 alone or with SST14 or CST17
T1 construct: purchased Anaspec, Inc. (Fremont, CA, USA) AS-24224; host or cells: synthetic peptide
Protocol: Initially, we were interested in observing the influence of incubation time on sample composition (Figure 5B).

[2] = tested on: tau phosphorylated at pSer202/pThr205 (AT8) and pThr231 (AT180) in primary hippocampal neurons; experiment: Primary hippocampal neuron tau phosphorylation assay (Western blot)
SST14 = experiment: SST14-dependent ThT incorporation in presence of Aβ1-42; assay type: biochemical, human
From the text: Figure 4. […] (A) Workflow of ThT-based aggregation assay. (B) Representative ThT fluorescence charts using synthetic Aβ1-42 alone or in combination with SST14 or negative control AVP peptides. […] Please see legend for experimental conditions. DOI: http://dx.doi.org/10.7554/eLife.28401.008 Figure 4—figure supplement 1. […] (A) Workflow of ThT-based aggregation assay. […] (B) Representative ThT fluorescence charts monitoring SST14-dependent ThT incorporation. […] DOI: http://dx.doi.org/10.7554/eLife.28401.009 [drawing 1] Figure 4—figure supplement 2. […] (A) Workflow of amylin-dependent ThT fluorecence assay in the presence or absence of SST14. (B) Representative ThT fluorescence charts monitoring amylin-dependent ThT incorporation. […] DOI: http://dx.doi.org/10.7554/eLife.28401.010 [drawing 2]
Assay procedures were largely based on a protocol described by Sarah Linse’s group ([Hellstrand et al., 2010]). […] The subsequent plate incubation proceeded at 37°C with shaking at 700 rpm for 4 of every 5 min in a microplate reader (CLARIOstar, BMG Labtech, Guelph, ON, Canada) for overall durations specified in individual figures. ThT fluorescence was measured every 5 min at excitation and emission wavelengths of 444 nm and 485 nm, respectively.

Aβ1-42 [3] = molecular target: T1, Aβ1-42; experiment: Negative stain electron microscopy of Aβ1-42 assemblies; assay type: biochemical; conditions: 50 μM Aβ1-42 in PBS, with or without equimolar SST
Aβ = conditions: ref Maftei et al., 2012; cited from earlier work
From the text: Although initially captured at pH 8.0, a widely-used pH for interactome analyses, owed to its wide-spread use in radioimmunoprecipitation assay (RIPA) buffer formulations, the oAβ-SST14 interaction was in subsequent validation ...

T1 sequence (P05067 672-713 limits assumed): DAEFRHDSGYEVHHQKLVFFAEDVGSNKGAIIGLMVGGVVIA

Substance: amyloid β peptide 1-42 [Aβ1-42]
- apparent molecular weight of HMM 6E10 signals (Aβ1-42 [1]): 55-200 kDa
- tau hyperphosphorylation by monomeric Aβ1-42 ([2]; monomeric Aβ1-42 (0 hr) alone, 24 hr exposure): not observed when monomeric Aβ1-42 was added to the cell culture medium alone
- tau hyperphosphorylation by oligomeric Aβ1-42 ([2]; pre-aggregated (24 hr) Aβ1-42, 24 hr exposure, day 18 cultures, AT8 and AT180, listed as oAβ1-42): robust tau hyperphosphorylation was observed
- delay of SST14-dependent ThT incorporation by monomeric Aβ1-42 (SST14; 1 μM monomeric Aβ1-42, 250 μM SST14): Oligomeric, but not monomeric, Aβ1-42 interferes with SST14-dependent ThT incorporation
- delay of SST14-dependent ThT incorporation by oligomeric Aβ1-42 (SST14; 1 μM pre-aggregated Aβ1-42, 250 μM SST14): reliably delayed SST14-dependent ThT incorporation by several hours; also recorded: profound delay in SST14 aggregation-dependent ThT incorporation
- assemblies observed by negative stain electron microscopy (Aβ1-42 [3]): characteristic amyloid fibrils

Substance: humanin: 21-24 amino acid peptide coded within the mitochondrial 16S ribosomal RNA gene
- Aβ binding epitope (Aβ): interacts with an Aβ binding epitope encompassing residues 17-28
